“And” between values parts separate entries of the source, which are not always exact repeats. Equal entries are not always repeated. Toxic doses and inconclusive results are not listed.
Test system: P388 leukemia ip, CD2F1 mice, survival T/C
Test: NCI In Vivo Anticancer Drug Screen. Data for tumor model P388 Leukemia (intraperitoneal) in CD2F1 (CDF1) mice
Conditions: endpoint: median survival time, higher = longer survival
Outline: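 Mice carrying the transplanted tumor received test compound or vehicle. Survival was recorded in each group, and the value is the treated-group measurement divided by that of the vehicle-treated control group.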

[1] = dose: 60.0 mg/kg/injection, schedule: Q01DX005 (ip), vehicle: saline with Tween-80
[2] = dose: 120.0 mg/kg/injection, schedule: Q01DX005 (ip), vehicle: saline with Tween-80
[3] = dose: 240.0 mg/kg/injection, schedule: Q01DX005 (ip), vehicle: saline with Tween-80
[4] = dose: 100.0 mg/kg/injection, schedule: Q04DX003 (ip), vehicle: Klucel (hydroxypropylcellulose) (HPC)
[5] = dose: 200.0 mg/kg/injection, schedule: Q04DX003 (ip), vehicle: Klucel (hydroxypropylcellulose) (HPC)
[6] = dose: 400.0 mg/kg/injection, schedule: Q04DX003 (ip), vehicle: Klucel (hydroxypropylcellulose) (HPC)
[7] = dose: 1.56 mg/kg/injection, schedule: Q01DX009 (ip), vehicle: saline with Tween-80
[8] = dose: 3.12 mg/kg/injection, schedule: Q01DX009 (ip), vehicle: saline with Tween-80
[9] = dose: 6.25 mg/kg/injection, schedule: Q01DX009 (ip), vehicle: saline with Tween-80
[10] = dose: 12.5 mg/kg/injection, schedule: Q01DX009 (ip), vehicle: saline with Tween-80
[11] = dose: 50.0 mg/kg/injection, schedule: Q01DX005 (ip), vehicle: saline with Tween-80
[12] = dose: 100.0 mg/kg/injection, schedule: Q01DX005 (ip), vehicle: saline with Tween-80
[13] = dose: 200.0 mg/kg/injection, schedule: Q01DX005 (ip), vehicle: saline with Tween-80
[14] = dose: 50.0 mg/kg/injection, schedule: Q01DX005 (ip), vehicle: Klucel (hydroxypropylcellulose) (HPC)
[15] = dose: 100.0 mg/kg/injection, schedule: Q01DX005 (ip), vehicle: Klucel (hydroxypropylcellulose) (HPC)
[16] = dose: 200.0 mg/kg/injection, schedule: Q01DX005 (ip), vehicle: Klucel (hydroxypropylcellulose) (HPC)

Compound: CC[C@@]1(O)C[C@H](OC2CC(N(C)C)C(OC3CC(O)C(OC4CCC(=O)C(C)O4)C(C)O3)C(C)O2)c2c(cc3c(c2O)C(=O)c2c(O)ccc(O)c2C3=O)[C@H]1C(=O)OC (some centres undefined)
- T/C (dose: 1.56 mg/kg/injection, schedule: Q04DX003 (ip), vehicle: saline): 116 % of control
- T/C (dose: 2.0 mg/kg/injection, schedule: Q04DX003 (ip), vehicle: saline with Tween-80): 154 % of control and 161 % of control
- T/C (dose: 2.59 mg/kg/injection, schedule: Q04DX003 (ip), vehicle: water): 160 % of control
- T/C (dose: 4.32 mg/kg/injection, schedule: Q04DX003 (ip), vehicle: saline): 152 % of control and 153 % of control and 160 % of control
- T/C (dose: 4.32 mg/kg/injection, schedule: Q04DX003 (ip), vehicle: water): 151 % of control and 169 % of control
- T/C (dose: 7.2 mg/kg/injection, schedule: Q04DX003 (ip), vehicle: saline): 164 % of control and 180 % of control
- T/C (dose: 8.0 mg/kg/injection, schedule: Q04DX003 (ip), vehicle: saline with Tween-80): 94 % of control and 98 % of control
- T/C (dose: 12.0 mg/kg/injection, schedule: Q04DX003 (ip), vehicle: saline): 103 % of control
- T/C (dose: 12.0 mg/kg/injection, schedule: Q04DX003 (ip), vehicle: water): 92 % of control

Compound: CC1=C(C(=O)CC(=O)C(=O)Nc2ccc(C)cc2)Sc2ccccc2N1
- T/C [1]: 105 % of control
- T/C [2]: 108 % of control
- T/C [3]: 106 % of control

Compound: C=C(C)C#CC1(O)C=C(OC)C(OC)=CC1=O (centres undefined)
- T/C [1]: 105 % of control
- T/C [2]: 107 % of control
- T/C [3]: 88 % of control

Compound: [Cu+2].[NH-]C(=O)NC([NH-])=O.[NH-]C(=O)NC([NH-])=O
- T/C (dose: 6.25 mg/kg/injection, schedule: Q01DX005 (ip), vehicle: saline with Tween-80): 99 % of control
- T/C (dose: 12.5 mg/kg/injection, schedule: Q01DX005 (ip), vehicle: saline with Tween-80): 99 % of control

Compound: Clc1ccc2c(c1)[N+](=c1ccc3nc4cc(Cl)ccc4sc-3c1)c1ccccc1S2.[Cl][Cu][Cl]
- T/C (dose: 60.0 mg/kg/injection, schedule: Q01DX005 (ip), vehicle: Klucel (hydroxypropylcellulose) (HPC)): 95 % of control
- T/C (dose: 120.0 mg/kg/injection, schedule: Q01DX005 (ip), vehicle: Klucel (hydroxypropylcellulose) (HPC)): 91 % of control
- T/C (dose: 240.0 mg/kg/injection, schedule: Q01DX005 (ip), vehicle: Klucel (hydroxypropylcellulose) (HPC)): 88 % of control

Compound: CC([NH-])CC(C)[NH-].O=[N+]([O-])O.O=[N+]([O-])O.[Pt+2] (centres undefined)
- T/C (dose: 25.0 mg/kg/injection, schedule: Q04DX002 (ip), vehicle: saline): 159 % of control

Compound: C=C(C)C1CC=C(C)/C(=N/NC(=O)c2ccccn2)C1 (centres undefined)
- T/C [4]: 111 % of control
- T/C [5]: 94 % of control
- T/C [6]: 94 % of control

Compound: CCOC(=O)/N=[N+](\[O-])c1ccccc1
- T/C (dose: 0.2 mg/kg/injection, schedule: Q01DX009 (ip), vehicle: saline with Tween-80): 103 % of control
- T/C (dose: 0.39 mg/kg/injection, schedule: Q01DX009 (ip), vehicle: saline with Tween-80): 103 % of control
- T/C (dose: 0.78 mg/kg/injection, schedule: Q01DX009 (ip), vehicle: saline with Tween-80): 106 % of control and 95 % of control
- T/C [7]: 109 % of control and 95 % of control
- T/C [8]: 103 % of control and 123 % of control
- T/C (dose: 3.12 mg/kg/injection, schedule: Q04DX003 (ip), vehicle: saline with Tween-80): 112 % of control and 115 % of control
- T/C [9]: 107 % of control and 115 % of control
- T/C (dose: 6.25 mg/kg/injection, schedule: Q04DX003 (ip), vehicle: saline with Tween-80): 99 % of control and 110 % of control
- T/C [10]: 115 % of control
- T/C (dose: 12.5 mg/kg/injection, schedule: Q04DX003 (ip), vehicle: saline with Tween-80): 112 % of control and 117 % of control and 123 % of control
- T/C (dose: 25.0 mg/kg/injection, schedule: Q04DX003 (ip), vehicle: saline with Tween-80): 110 % of control

Compound: COc1cc(=O)n(-c2ccccc2)nc1C#N
- T/C [11]: 93 % of control
- T/C [12]: 92 % of control
- T/C [13]: 90 % of control

Compound: COC(=O)C12CC=CCC1(C(=O)OC)CC=CC2 (centres undefined)
- T/C (dose: 50.0 mg/kg/injection, schedule: Q01DX009 (ip), vehicle: Klucel (hydroxypropylcellulose) (HPC)): 101 % of control
- T/C (dose: 100.0 mg/kg/injection, schedule: Q01DX009 (ip), vehicle: Klucel (hydroxypropylcellulose) (HPC)): 100 % of control
- T/C (dose: 200.0 mg/kg/injection, schedule: Q01DX009 (ip), vehicle: Klucel (hydroxypropylcellulose) (HPC)): 102 % of control

Compound: COc1ccc(S(=O)(=O)N=N/C=C2\C=CC=CN2O)cc1OC
- T/C [7]: 104 % of control
- T/C [8]: 103 % of control
- T/C [9]: 103 % of control
- T/C [10]: 100 % of control and 103 % of control and 90 % of control
- T/C (dose: 25.0 mg/kg/injection, schedule: Q01DX001 (ip), vehicle: saline with Tween-80): 100 % of control
- T/C (dose: 25.0 mg/kg/injection, schedule: Q01DX009 (ip), vehicle: saline with Tween-80): 110 % of control and 114 % of control and 117 % of control
- T/C (dose: 50.0 mg/kg/injection, schedule: Q01DX001 (ip), vehicle: saline with Tween-80): 109 % of control
- T/C (dose: 50.0 mg/kg/injection, schedule: Q01DX009 (ip), vehicle: saline with Tween-80): 119 % of control
- T/C (dose: 100.0 mg/kg/injection, schedule: Q01DX001 (ip), vehicle: saline with Tween-80): 118 % of control

Compound: O=C1CCC(c2n[nH]c(=S)o2)N1 (centres undefined)
- T/C [1]: 104 % of control
- T/C [2]: 105 % of control
- T/C [3]: 108 % of control

Compound: CCOC(=O)COc1cc2c(cc1C(C)c1ccc(OC)cc1)OCO2 (centres undefined)
- T/C [14]: 104 % of control
- T/C [15]: 100 % of control
- T/C [16]: 94 % of control

Compound: Cc1ccc(S(=O)(=O)NC(CCC(N)=O)C(=O)O)cc1 (centres undefined)
- T/C [11]: 100 % of control
- T/C [12]: 103 % of control
- T/C [13]: 91 % of control

Compound: CNC(=S)C#N
- T/C (dose: 25.0 mg/kg/injection, schedule: Q01DX005 (ip), vehicle: saline + Tween-80 + alcohol): 122 % of control
- T/C (dose: 50.0 mg/kg/injection, schedule: Q01DX005 (ip), vehicle: saline + Tween-80 + alcohol): 111 % of control and 119 % of control
- T/C (dose: 100.0 mg/kg/injection, schedule: Q01DX005 (ip), vehicle: saline + Tween-80 + alcohol): 119 % of control

Compound: CS(=O)(=O)OC1CC(Cl)CO1 (centres undefined)
- T/C [4]: 100 % of control
- T/C [5]: 100 % of control
- T/C [6]: 103 % of control

Compound: NC(=O)c1c(N)ncnc1N
- T/C (dose: 12.5 mg/kg/injection, schedule: Q04DX002 (ip), vehicle: saline with Tween-80): 102 % of control
- T/C (dose: 25.0 mg/kg/injection, schedule: Q04DX002 (ip), vehicle: saline with Tween-80): 104 % of control
- T/C (dose: 50.0 mg/kg/injection, schedule: Q04DX002 (ip), vehicle: saline with Tween-80): 101 % of control

Compound: O=c1c2oc3ccccc3c2cnn1CCl
- T/C [14]: 103 % of control
- T/C [15]: 103 % of control
- T/C [16]: 96 % of control

Compound: CC(NN(C)C(=S)Nc1ccccc1)c1ccccn1 (centres undefined)
- T/C [11]: 100 % of control
- T/C [12]: 103 % of control
- T/C [13]: 109 % of control

Compound: Cc1cccc(/C(=C/c2ccc([N+](=O)[O-])cc2)C(=O)Nc2ccc(S(=O)(=O)F)cc2)c1
- T/C [1]: 93 % of control
- T/C [2]: 98 % of control

Compound: CCOC(=O)C(C(=O)OCC)=C(N)C(Cl)(Cl)Cl
- T/C (dose: 25.0 mg/kg/injection, schedule: Q01DX005 (ip), vehicle: Klucel (hydroxypropylcellulose) (HPC)): 116 % of control
- T/C [14]: 117 % of control
- T/C [15]: 111 % of control
- T/C [16]: 110 % of control

Compound: CCOc1c(C)cc(C(C)c2cc3c(cc2OC)OCO3)cc1C (centres undefined)
- T/C [11]: 97 % of control
- T/C [12]: 99 % of control
- T/C [13]: 107 % of control

Compound: COc1cccc2c1C(=O)c1c(O)c(COC3CC(N)C(O)C(C)O3)cc(O)c1C2=O (centres undefined)
- T/C (dose: 1.56 mg/kg/injection, schedule: Q04DX003 (ip), vehicle: water): 96 % of control
- T/C (dose: 3.13 mg/kg/injection, schedule: Q04DX003 (ip), vehicle: water): 96 % of control
- T/C (dose: 6.25 mg/kg/injection, schedule: Q04DX003 (ip), vehicle: water): 104 % of control
- T/C (dose: 12.5 mg/kg/injection, schedule: Q04DX003 (ip), vehicle: water): 101 % of control
- T/C (dose: 25.0 mg/kg/injection, schedule: Q04DX003 (ip), vehicle: water): 95 % of control

Compound: NC(=O)NC(=O)C(Cc1ccccc1)c1ccccc1 (centres undefined)
- T/C [1]: 99 % of control
- T/C [2]: 95 % of control
- T/C [3]: 86 % of control

Compound: Cc1cc2nc(CC(O)(C(F)(F)F)C(F)(F)F)oc2cc1C
- T/C (dose: 100.0 mg/kg/injection, schedule: Q04DX003 (ip), vehicle: saline with Tween-80): 95 % of control
- T/C (dose: 200.0 mg/kg/injection, schedule: Q04DX003 (ip), vehicle: saline with Tween-80): 95 % of control
- T/C (dose: 400.0 mg/kg/injection, schedule: Q04DX003 (ip), vehicle: saline with Tween-80): 100 % of control

— PubChem BioAssay AID330 (DTP/NCI, 2004)
